Test results: US20260315606A1, “NOVEL COMPOUNDS CAPABLE OF INDUCING OSTEOGENIC DIFFERENTIATION” (AJOU UNIVERSITY INDUSTRY-ACADEMIC COOPERATION FOUNDATION, priority 2023, published 2026)

Legend:
MDM2 = biological target: T1, MDM2 (Homo sapiens, UniProt Q00987); test: Western blot (SDS-PAGE) of intracellular MDM2 protein degradation in hDPSCs; format: cell-based; settings: FIG. 2; selected treatment concentrations not given
T1 construct: degradation by nutlin-based CRBN-recruiting PROTACs, Western blot
Protocol: Human dental pulp stem cell lines (hDPSCs) were treated with 14 types of synthesized MDM2-PROTACs (10 μM) for 1 hour and Western blot analysis using SDS-PAGE gel was performed to evaluate the intracellular MDM2 protein degradation capacity.

p53 = p53 activation in selection of compounds (FIG. 2); format: cell-based, human; settings: selected treatment concentrations not given

T1 sequence (Q00987 whole entry): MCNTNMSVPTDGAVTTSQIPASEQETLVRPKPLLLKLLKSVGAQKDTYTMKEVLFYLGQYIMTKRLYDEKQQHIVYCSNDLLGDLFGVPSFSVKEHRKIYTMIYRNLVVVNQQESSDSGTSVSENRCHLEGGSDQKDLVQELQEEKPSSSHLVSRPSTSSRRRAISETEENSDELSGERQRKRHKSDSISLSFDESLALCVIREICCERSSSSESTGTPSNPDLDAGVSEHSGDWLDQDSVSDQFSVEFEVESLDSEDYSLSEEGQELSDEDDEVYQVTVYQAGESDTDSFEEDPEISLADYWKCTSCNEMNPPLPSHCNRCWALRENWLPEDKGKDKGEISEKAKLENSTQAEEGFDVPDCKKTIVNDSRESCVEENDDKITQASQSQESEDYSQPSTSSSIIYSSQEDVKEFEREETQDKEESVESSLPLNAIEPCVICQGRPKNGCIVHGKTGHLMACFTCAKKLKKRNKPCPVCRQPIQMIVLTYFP
T1 sequence (Q96SW2 whole entry partner): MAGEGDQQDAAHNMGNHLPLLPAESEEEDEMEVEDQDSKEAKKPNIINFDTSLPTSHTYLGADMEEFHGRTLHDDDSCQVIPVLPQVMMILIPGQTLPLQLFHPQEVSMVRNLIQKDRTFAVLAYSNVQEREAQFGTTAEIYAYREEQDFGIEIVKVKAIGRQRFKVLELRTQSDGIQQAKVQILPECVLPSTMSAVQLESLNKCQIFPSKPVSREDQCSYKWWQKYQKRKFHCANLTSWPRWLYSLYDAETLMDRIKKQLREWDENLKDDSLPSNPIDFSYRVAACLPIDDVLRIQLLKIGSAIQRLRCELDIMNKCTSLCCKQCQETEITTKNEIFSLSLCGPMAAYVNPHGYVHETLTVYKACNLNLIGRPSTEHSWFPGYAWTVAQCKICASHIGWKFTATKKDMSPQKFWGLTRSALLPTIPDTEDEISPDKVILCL

| Substance | MDM2 degradation (selected compounds) (MDM2) | p53 activation (selected compounds) (p53) |
| --- | --- | --- |
| 2-(4-(cis-4,5-bis(4-chlorophenyl)-2-(2-isopropoxy-oxopiperazin-1-yl)-N-(9-(2-(2,6-dioxopiperidin-3-yl)-1,3-dioxoisoindolin-4-yl)non-8-yn-1-yl) acetamide [Compound 16b] | effectively degrade MDM2 | activate p53 |
| 2-(4-(cis-4,5-bis(4-chlorophenyl)-2-(2-isopropoxy-4-methoxyphenyl)-4,5-dihydro-1H-imidazole-1-carbonyl)-2-oxopiperazin-1-yl)-N-(8-((2-(2,6-dioxo-opiperidin-3-yl)-1,3-dioxoisoindolin-4-yl)oxy)octyl)acetamide [Compound 6b] | effectively degrade MDM2 | activate p53 |
